Source: article PMC10487436, “Towards Anticancer and Antibacterial Agents: Design and Synthesis of 1,2,3-Triazol-quinobenzothiazine Derivatives” (International Journal of Molecular Sciences, 2023)
≈ marks a conversion by molar mass, not a printed value.

Legend:
[1] = test system: A549 (human lung carcinoma); assay: WST-1 proliferation assay, A549; format: cell-based
Procedure: (§1) Compounds were evaluated for their antiproliferative activity using three cultured cell lines: A549 (human lung carcinoma, ATCC, Manassas, VA, USA), SNB-19 (human glioblastoma, DSMZ, German Collection of Microorganisms and Cell Cultures), T-47D (human breast cancer, ATCC, Manassas, VA, USA), and NHDF (normal human dermal fibroblasts, ATCC, Manassas, VA, USA). The cultured cells were kept at 37 °C and 5% CO2. The cells were seeded (1 × 10^4 cells/well/100 μL DMEM supplemented with 10% FCS, streptomycin, and penicillin) using 96-well plates (corning). Cells were counted in a hemocytometer (Burker chamber) using a phase contrast Olympus IX50 microscope equipped with a Sony SSC-DC58 AP camera and an Olympus DP10 digital camera.
(§2) The antiproliferative effect of the compounds exerted on cancer and normal cells was determined using the Cell Proliferation Reagent WST-1 assay (Roche Molecular Biochemicals, Mannheim, Germany). This assay is based on a colorimetric method using the enzymatic ability of viable cells to cause the bright, red-colored stable tetrazolium monosodium salt [2-(4-iodophenyl)-3-(4-nitrophenyl)-5-(2,4-disulfophenyl)–2H-tetra-zolium] to transform into the dark, red-colored soluble formazan. […] An increase in the amount of formazan dye formed correlated with the number of metabolically active cells in the culture. The formazan dye produced by metabolically active cells was quantified by absorbance readings at appropriate wavelengths. The examined cells were exposed to the tested compounds (1 mM DMSO stock) for 72 h at various concentrations (0.1–100 μM). The control was performed in order to eliminate the DMSO effect at the concentration used. Cell cultures were incubated with WST-1 (10 μL) for 1 h. The absorbance of the samples was measured against a background control at 450 nm using a microplate reader with a reference wavelength at 600 nm. The obtained results are expressed as the means of at least two independent experiments performed in triplicate. The antiproliferative activity of the tested compounds was compared to that of cisplatinum. The values of IC50 (a concentration of a compound that is required for 50% inhibition) were calculated from the dose-response relationship with respect to control. The results were reported as the mean (±std) of three separate experiments.

[2] = test system: NHDF (normal human dermal fibroblasts); assay: WST-1 proliferation assay, NHDF; format: cell-based; settings: normal cells, 72 h exposure
Procedure: as §1, §2

[3] = test system: T-47D (human breast cancer); assay: WST-1 proliferation assay, T47D; format: cell-based; settings: 72 h exposure
Procedure: as §1, §2

[4] = test system: SNB-19 (human glioblastoma); assay: WST-1 proliferation assay, SNB-19; format: cell-based
Procedure: as §1, §2

[5] = test system: Mycobacterium smegmatis ATCC 700084; settings: MTT, 3 days
[6] = test system: Mycobacterium smegmatis ATCC 700084; assay: MBC, agar aliquot subculture method, MS; format: cell-based; settings: Mycolicibacterium smegmatis, ATCC700084
Procedure: (§3) For the above-mentioned strains/isolates, the agar aliquot subculture method was used as a test for bactericidal agents. After the MIC value determination, the inoculum was transferred to CaMH (Oxoid) for staphylococci, BHI (Oxoid) for enterococci, and Middlebrook 7H9 (Difco) for mycobacteria medium using a multipoint inoculator. As indicated above, the plates were incubated on a thermostat at 37 °C for the appropriate time for each micro-organism. The lowest concentration of test compound at which ≤5 colonies were obtained was then evaluated as MBC, corresponding to a 99.9% decrease in CFU relative to the original inoculum.

[7] = test system: Mycobacterium smegmatis ATCC 700084; assay: MIC, broth dilution micro-method, MS; format: cell-based; settings: Mycolicibacterium smegmatis, ATCC700084, 72 h; 3 days at 37 °C
[8] = test system: Mycobacterium marinum CAMP 5644; assay: MBC, agar aliquot subculture method, MM; format: cell-based; settings: CAMP5644
Procedure: as §3

[9] = test system: Mycobacterium marinum CAMP 5644; assay: MIC, broth dilution micro-method, MM; format: cell-based; settings: CAMP5644, 504 h, 21 days at 28 °C
[10] = test system: vancomycin-resistant E. faecalis VRE 725B; assay: MIC, microtitration broth method, VRE3; format: cell-based; settings: Enterococcus faecalis, 24 h at 37 °C
Procedure: (§4) In vitro antibacterial activity of the synthesized compounds was evaluated against representatives of multidrug-resistant bacteria, three clinical isolates of methicillin-resistant S. aureus: clinical isolates of animal origin, MRSA 63718 (Department of Infectious Diseases and Microbiology, Faculty of Veterinary Medicine, University of Veterinary Sciences Brno, Czech Republic), carrying the mecA gene; and MRSA SA 630 and MRSA SA 3202 [52] (National Institute of Public Health, Prague, Czech Republic), both of human origin. […] Vancomycin- and methicillin-susceptible S. aureus ATCC 29213 and vancomycin-susceptible Enterococcus faecalis ATCC 29212, obtained from the American Type Culture Collection, were used as the reference and quality control strains. Three vanA gene-carrying vancomycin-resistant isolates of E. faecalis (VRE 342B, VRE 368, VRE 725B) were provided by Oravcova et al..
(§5) The minimum inhibitory concentrations (MICs) were evaluated by the microtitration broth method according to the CLSI, with some modifications. The compounds were dissolved in DMSO (Sigma, St. Louis, MO, USA) to obtain a concentration of […] and diluted in a microtitration plate in an appropriate medium, i.e., Cation Adjusted Mueller–Hinton Broth (CaMH, Oxoid, Basingstoke, UK) for staphylococci, and Brain Heart Infusion Broth (BHI, Oxoid) for enterococci, to reach the final concentration of 256–0.125 µg/mL. Microtiter plates were inoculated with test micro-organisms so that the final concentration of bacterial cells was 10^5. […] A drug-free control and a sterility control were included. The plates were incubated for 24 h at 37 °C for staphylococci and enterococci. […] The experiments were repeated three times.

[11] = test system: Staphylococcus aureus ATCC 29213; assay: MIC, microtitration broth method, SA; format: cell-based; settings: ATCC29213, 24 h at 37 °C
Procedure: as §4, §5

[12] = test system: methicillin-resistant S. aureus SA 630; assay: MIC, microtitration broth method, MRSA2; format: cell-based; settings: Staphylococcus aureus; 24 h at 37 °C
Procedure: as §4, §5

[13] = test system: methicillin-resistant S. aureus SA 3202; assay: MIC, microtitration broth method, MRSA1; format: cell-based; settings: Staphylococcus aureus; 24 h at 37 °C
Procedure: as §4, §5

[14] = test system: vancomycin-resistant E. faecalis VRE 368; assay: MIC, microtitration broth method, VRE2; format: cell-based; settings: Enterococcus faecalis, 24 h at 37 °C
Procedure: as §4, §5

[15] = test system: vancomycin-resistant E. faecalis VRE 342B; assay: MIC, microtitration broth method, VRE1; format: cell-based; settings: Enterococcus faecalis, 24 h at 37 °C
Procedure: as §4, §5

[16] = test system: methicillin-resistant S. aureus 63718; assay: MIC, microtitration broth method, MRSA3; format: cell-based; settings: Staphylococcus aureus; 24 h at 37 °C
Procedure: as §4, §5

[17] = test system: Enterococcus faecalis ATCC 29213; assay: MIC, microtitration broth method, EF; format: cell-based; settings: ATCC29213, 24 h at 37 °C
[18] = Homo sapiens, A549, 72 h exposure
[19] = Homo sapiens, SNB-19, 72 h exposure

N.N.[Cl][Pt][Cl] [CIS, cisplatin, reference compound]
IC50 ([1]; 72 h exposure): 3 ± 0.2 µM
IC50 [2]: 29.9 ± 3.3 µM
IC50 [3]: 9 ± 0.7 µM
IC50 ([4]; 72 h exposure): 16.7 ± 1.3 µM

C=CCn1cc(COc2ccccc2N)nn1 [5a, 1-allyl-4-(2-aminophenoxy)methyl-1H-1,2,3-triazole]
IC50 [1, 18]: > 100 µM
IC50 ([2]; Homo sapiens, NHDF): > 100 µM
IC50 ([3]; Homo sapiens, T47D): > 100 µM
IC50 [4, 19]: > 100 µM

O=C(O)c1cn(C2CC2)c2cc(N3CCNCC3)c(F)cc2c1=O [CPX, ciprofloxacin, reference compound]
Conc.: lowest multiple of MBC with at least 70% inhibition of respiratory activity [5]: 32× MIC (32× MBC)
Conc.: lowest multiple of MIC with at least 70% inhibition of respiratory activity [5]: 32× MIC (32× MBC)
MBC [6]: 0.38 µM (≈ 0.126 µg/mL)
MIC [7]: 0.38 µM (≈ 0.126 µg/mL)
MBC [8]: 0.38 µM (≈ 0.126 µg/mL)
MIC [9]: 0.38 µM (≈ 0.126 µg/mL)

Nc1ccc(OCc2cn(Cc3ccccc3)nn2)cc1 [5f, 1-benzyl-4-(4-aminophenoxy)methyl-1H-1,2,3-triazole]
IC50 [1, 18]: > 100 µM
IC50 ([2]; Homo sapiens, NHDF): > 100 µM
IC50 ([3]; Homo sapiens, T47D): > 100 µM
IC50 [4, 19]: > 100 µM

C[n+]1cc2c(c3ccccc31)Nc1c(OCc3cn(Cc4ccccc4)nn3)cccc1S2 [2f, 5-Methyl-11-(1-benzyl-1H-1,2,3-triazol-4-yl)methoxy-12H-quino [3,4-b][1,4]benzothiazinium chloride]
IC50 [1, 18]: 11.5 ± 0.6 µM
MBC [6]: 65.5 µM
MIC [10]: > 524 µM
MIC [7]: 65.5 µM
IC50 ([2]; Homo sapiens, NHDF): 30.5 ± 2.1 µM
MBC [8]: 65.5 µM
MIC [11]: > 524 µM
MIC [12]: > 524 µM
IC50 ([3]; Homo sapiens, T47D): 20.5 ± 1.4 µM
MIC [13]: > 524 µM
IC50 [4, 19]: 8.5 ± 0.5 µM
MIC [14]: > 524 µM
MIC [15]: > 524 µM
MIC [16]: 524 µM
MIC [9]: 65.5 µM
MIC [17]: > 524 µM

Nc1ccc(OCc2cn(Cc3ccc([N+](=O)[O-])cc3)nn2)cc1 [5i, 1-(4-nitrobenzyl)-4-(4-aminophenoxy)methyl-1H-1,2,3-triazole]
IC50 [1, 18]: > 100 µM
IC50 ([2]; Homo sapiens, NHDF): > 100 µM
IC50 ([3]; Homo sapiens, T47D): > 100 µM
IC50 [4, 19]: > 100 µM

CO[C@H]1/C=C/O[C@@]2(C)Oc3c(C)c(O)c4c(O)c(c(/C=N/N5CCN(C)CC5)c(O)c4c3C2=O)NC(=O)/C(C)=C\C=C\[C@H](C)[C@H](O)[C@@H](C)[C@@H](O)[C@@H](C)[C@H](OC(C)=O)[C@@H]1C [RIF, rifampicin, reference compound]
MIC [7]: 19.4 µM (≈ 16 µg/mL)
MIC [9]: 2.43 µM (≈ 2 µg/mL)

C=CCn1cc(COc2cccc3c2Nc2c(c[n+](C)c4ccccc24)S3)nn1 [2c, 5-Methyl-11-(1-allyl-1H-1,2,3-triazol-4-yl)methoxy-12H-quino [3,4-b][1,4]benzothiazinium chloride]
IC50 [1, 18]: 5.7 ± 0.9 µM
MBC [6]: 65.5 µM
MIC [10]: 524 µM
MIC [7]: 65.5 µM
IC50 ([2]; Homo sapiens, NHDF): > 100 µM
MBC [8]: 131 µM
MIC [11]: 524 µM
MIC [12]: 524 µM
IC50 ([3]; Homo sapiens, T47D): 7.6 ± 0.4 µM
MIC [13]: 524 µM
IC50 [4, 19]: 4.1 ± 0.5 µM
MIC [14]: > 524 µM
MIC [15]: > 524 µM
MIC [16]: 524 µM
MIC [9]: 131 µM
MIC [17]: > 524 µM

Nc1cccc(OCc2cn(Cc3ccc([N+](=O)[O-])cc3)nn2)c1 [5h, 1-(4-nitrobenzyl)-4-(3-aminophenoxy)methyl-1H-1,2,3-triazole]
IC50 [1, 18]: > 100 µM
IC50 ([2]; Homo sapiens, NHDF): > 100 µM
IC50 ([3]; Homo sapiens, T47D): > 100 µM
IC50 [4, 19]: > 100 µM

C[n+]1cc2c(c3ccccc31)Nc1c(OCc3cn(Cc4ccc([N+](=O)[O-])cc4)nn3)cccc1S2 [2i, 5-Methyl-11-[1-(4-nitrobenzyl)-1H-1,2,3-triazol-4-yl]methoxy-12H-quino [3,4-b][1,4]benzothiazinium chloride]
IC50 [1, 18]: 9 ± 0.4 µM
MBC [6]: 65.5 µM
MIC [10]: 524 µM
MIC [7]: 65.5 µM
IC50 ([2]; Homo sapiens, NHDF): > 100 µM
MBC [8]: 131 µM
MIC [11]: 524 µM
MIC [12]: 524 µM
IC50 ([3]; Homo sapiens, T47D): 2.8 ± 0.2 µM
MIC [13]: 524 µM
IC50 [4, 19]: 4.9 ± 0.3 µM
MIC [14]: > 524 µM
MIC [15]: > 524 µM
MIC [16]: 524 µM
MIC [9]: 131 µM
MIC [17]: > 524 µM

COc1cccc2c1C(=O)c1c(O)c3c(c(O)c1C2=O)C[C@@](O)(C(=O)CO)C[C@@H]3O[C@H]1C[C@H](N)[C@H](O)[C@H](C)O1 [DOX, doxorubicin, reference compound]
IC50 [1, 18]: 1.3 ± 0.1 µM
IC50 ([2]; Homo sapiens, NHDF): 5.5 ± 0.5 µM
IC50 ([3]; Homo sapiens, T47D): 0.8 ± 0.1 µM
IC50 [4, 19]: 1.7 ± 0.2 µM
